Results as given in patent publication US20080154102A1, “Intraoperative imaging methods” (priority 2006, published 2008).
“Also recorded” adds a separate entry of the source.

Key:
[1] = Absorbance spectrometry; type: physicochemical; details: for Peak Absorbance in PBS: Table 2
Protocol: (§1) Absorbance spectrometry was performed with a 1-cm path length quartz cuvette in a USB2000 fiber-optic spectrometer (Ocean Optics, Dunedin, Fla.). Fluorescence spectrometry was performed with a 1-cm path length, 1.5 mL disposable methacrylate cuvette (Fisher Scientific, Hampton, N.H.) in a HR2000 fiber-optic spectrometer, and CUV-ALL-UV four-way cuvette holder (Ocean Optics), using a 655 nm laser diode light source (OPCOM O.E. Inc., Xiamen, China) with maximum output less than 5 mW. Data acquisition was performed with a computer using an OOI-Base32 spectrometer operating software package (Ocean Optics). The spectral range of the USB2000-FL spectrometer was from 350 to 1000 nm with spectral resolution of 7.6 nm, and that of the HR2000 spectrometer was from 200 to 1100 nm with a spectral resolution of 6.7 nm.

[2] = Fluorescence spectrometry and fluorescence quantum yield; type: physicochemical; details: for Peak Fluorescence in PBS / Quantum Yield in PBS: Table 2
Protocol: as §1
Fluorescence intensity was measured in each solvent (PBS, FBS, and methanol) at each concentration of the dye to determine the effect of the methylene blue concentration and solvents on total fluorescence yield. Fluorescence quantum yields of methylene blue in PBS, FBS, and methanol were calculated using oxazine725 in ethylene glycol (quantum yield: 19%) as a calibration standard, under the conditions of matched absorbance of methylene blue in each solvent.

[3] = Excretion to bile / clearance after injection; type: in vivo
[4] = test system: common bile duct; assay: Cholangiographic imaging with ICG, IR-786 and CW800-CA in rats; type: in vivo
Protocol: 50 μL of 100 μM IR-786 or CW800-CA (15 μg/kg), or 1 mM ICG (150 μg/kg), was injected into portal vein in anesthetized rats. A simultaneous color video/NIR fluorescence intraoperative imaging system was employed for quantification of NIR fluorescence images. In another 32 rats, bile duct was visualized by intravenous (N=16) or portal vein injection (N=16) of 50 μL of CW800-CA at 10, 20, 50 and 100 μM to quantify the best concentration for bile duct imaging. Fluorescence intensities of bile duct, liver (right lobe), and pancreas were measured at 3, 5, 10, 20, and 30 min following injection.

[5] = test system: common bile duct; assay: Cholangiographic imaging with CW800-CA in pigs; type: in vivo; details: for detection of beads inserted into CBD: 5 mL of 50 μM intravenously, beads 2.5 and 3.5 mm
Protocol: Based on the results obtained in rats, CW800-CA was chosen as the contrast agent for a large animal model approaching the size of human. In 7 anesthetized pigs, 5 mL of 100 μM CW800-CA (15 μg/kg total) was injected into portal vein (N=3), or 5 mL of 50 μM (N=2) or 100 μM (N=2) of CW800-CA (7.5, and 15 μg/kg total, respectively) were injected intravenously.
Beads of 2.5 or 3.5 mm in diameter were inserted into common bile duct via papilla vateri by duodenostomy (N=2) to simulate blockage of the CBD.

[6] = test system: thoracic duct; assay: Thoracic duct visualization in the rat model; type: in vivo; details: 50 μL of 10 μM into mesenteric lymph node, 5 minutes
Protocol: Additional experiments on thoracic duct visualization in the rat model were also performed using other NIR fluorescent agents.

[7] = test system: ureters; assay: Ureteral mapping in rats; type: in vivo
Protocol: In rats, ureters were visualized by intravenous injection of 50 μL of CW800 CA at 10, 20, 50 and 100 μM to quantify the best concentration for […]. Fluorescence intensities of ureters, kidney, and abdominal wall were measured at 3, 5, 10, 20, and 30 min following injection.

[8] = Metabolism of CW800-CA, HPLC/mass spectrometry of urine samples; type: in vivo, pigs
Source text: As described herein, ureter visualization can usually be obtained rapidly, even in a few minutes following injection. […] To clarify the point, an HPLC/mass spectrometry (using electrospray/time-of-flight (ES-TOF) method has been made.
Urine samples were collected from pigs (N=5), and analyzed. The dye usually can be pinpointed with a fluorescence detector equipped with ES-TOF mass spectrometry. Urine samples were first passed over a 6,000 Da cutoff gel-filtration column to remove contaminating proteins, and eluate less than 6,000 Da was analyzed on a C18 column. Buffer A was water, BioPlus (American Bioanalytical, Natick, Mass.) and Buffer B was acetonitrile. Using a gradient of 0 to 50% Buffer B over 30 min, urine samples were resolved on a 4.6×150 mm Symmetry C18 column (Waters) at a flow rate of 1 ml per minute with eluate fed into a Waters LCT ES-TOF mass spectrometer. Ion mode was set to electrospray negative (ES−), and cone and capillary voltages were set at 30 and 3000 (V), respectively. Desolvation and source temperature were set at 350, 140 (° C.), respectively. Data were analyzed with Masslynx (Waters) software.

[9] = cited from earlier work
[10] = Fluorescence spectrometry and fluorescence quantum yield; type: physicochemical
[11] = test system: perforating arteries and veins; assay: NIR imaging of skin perforating vessels for flap surgery; type: in vivo, Yorkshire pig; details: 35 kg pig, 0.5 mg (14 μg/kg) intravenously
Protocol: To evaluate the usefulness of NIR agents for such methods, 0.5 mg (14 μg/kg) indocyanine green (ICG) was injected intravenously into a 35 kg Yorkshire pig, and the skin was imaged as described herein.

[12] = test system: common bile duct, vasculature, coronary artery, myocardium; assay: Multi-wavelength fluorescence imaging with MB and ICG; type: in vivo, pigs; details: pig
Protocol: Therefore, MB was used to visualize CBD in an anesthetized pig, while ICG was used to visualize vasculature.
To evaluate the possibility of multi-wavelength fluorescent imaging, ICG and methylene blue were used.
1 mg/kg methylene blue IV injection was followed 30 min after by 0.03 mg/kg ICG IV injection. […] NIR camera exposure time was 100 msec.
Next, one of the diagonal branches of the coronary artery (D2) was clamped (white arrow), and then 1 mg/kg of methylene blue was injected intravenously; see the second row of images. Just after releasing the clamp, 0.03 mg/kg ICG was injected intravenously. […] The right-most image in the second row was created by merging the image of the coronary arteriography using methylene blue at clamping D2 and the image using ICG after declamping D2.

[13] = rats, portal vein injection, listed as CW800CA

## CC1(C)C(/C=C/C2=C(Oc3ccc(S(=O)(=O)O)cc3)C(=C/C=C3/N(CCCCS(=O)(=O)O)c4ccc(S(=O)(=O)[O-])cc4C3(C)C)/CCC2)=[N+](CCCCCC(=O)O)c2ccc(S(=O)(=O)O)cc21 [CW800-CA]
[1]; in PBS
  Peak Absorbance in PBS: 775 nm
[2]; in PBS
  Peak Fluorescence in PBS: 796 nm
  Quantum Yield in PBS: 9%
[3]
  clearance after intravenous injection: rapidly cleared by: 1) the liver and excreted into bile and 2) the kidneys and excreted into urine
[4]; compared with ICG and IR-786
  selectivity among three contrast agents for bile duct imaging: most selective
[4]; portal vein injection
  dose required for CBD detection, portal vein injection: 3 to 15 µg/kg
[4]; rats, 50 μL (7.5 μg/kg)
  injected concentration showing the best SBR (CBD): 50 µM
[4]; rats, every concentration
  time of peak performance for CBD visualization: approximately 10 minutes
[4]; rats, intravenous or portal injection
  time at which CBD could be identified: 3 min
[4]; rats, portal vein injection
  dye stacking to the liver: no significant dye stacking to the liver
  signal to background ratio (SBR) of CBD, in words: excellent signal to background ratio
[4]; [13]
  dye stacking to the liver: no dye stacking in the liver
  signal to background ratio (SBR) of CBD, in words: higher SBR than the other two
[4]; systemic intravenous injection
  dose required for CBD detection, systemic intravenous injection: 7.5 to 15 µg/kg
[5]
  detection of beads inserted into CBD: detected completely in 2 of 2 pigs
[5]; listed as CW800CA
  detection of beads inserted into CBD: All beads could be detected perfectly in each trial
[5]; portal vein or intravenous injection
  time until visualization of the CBD after dye injection: 7 to 10 min
[6]
  thoracic duct in the fluorescence image: clearly visualized in the fluorescence image
[7]; rat
  visualization of ureters, in words: excellent visualization of ureters
[7]; rats, 50 μL (7.5 μg/kg)
  injected concentration showing the best SBR (ureter): 50 µM
[7]; rats, every concentration
  time of peak performance for ureter visualization: approximately 10 minutes
[7]; rats, intravenous injection
  time at which ureters could be identified: 3 min
[8]; HPLC/ES-TOF mass spectrometry
  form in which the dye is excreted: excreted into the bile in a substantially unmetabolized form; also recorded: excreted into bile as an unmetabolized form
[8]; HPLC/mass spectrometry
  fluorescence chromatograph after excretion into urine: essentially a single peak with the expected mass spectrum
[9]; Ohnishi et al.
  concentration above which significant quenching of fluorescence occurs: above 10 μM
[10]
  emission of CW800-CA: ≈ 800 nm

## CC1(C)C(/C=C/C=C/C=C/C=C2\N(CCCCS(=O)(=O)O)c3ccc4ccccc4c3C2(C)C)=[N+](CCCCS(=O)(=O)[O-])c2ccc3ccccc3c21 [ICG, indocyanine green]
[1]; in FBS
  Excitation Wavelength Maximum, (FBS): 800 nm
  Molar Extinction Coefficient, (FBS): 168,000 M^−1cm^−1
[1]; in FBS, in M-1cm-1 (unit assumed)
  molar extinction coefficient in FBS: 168,000
[1]; in PBS
  Excitation Wavelength Maximum, PBS: 779 nm
  Peak Absorbance in PBS: 779 nm
[2]; in FBS
  Emission Wavelength Maximum, (FBS): 811 nm
  Fluorescence Quantum Yield, (FBS): 9%
[2]; in FBS, from extinction coefficient and quantum yield
  ICG fluorescence relative to methylene blue fluorescence: about 8 times
[2]; in PBS
  Emission Wavelength Maximum, PBS: 806 nm
  Fluorescence Quantum Yield, PBS: 1%
  Peak Fluorescence in PBS: 806 nm
  Quantum Yield in PBS: 1%
[3]
  clearance after intravenous injection: rapidly cleared from the blood by the liver, but is only inefficiently transported into bile
[4]; rats, portal vein injection
  dye stacking to the liver: significant dye stacking to the liver
[6]
  thoracic duct in the fluorescence image: clearly visualized in the fluorescence image
[11]
  identification of perforating arteries and veins: can be identified
[12]
  distribution in myocardium after arteriography: evenly distributed over the entire myocardium
[12]; 0.03 mg/kg intravenously
  detection of diagonal branch D2 after releasing the clamp: detected clearly
[12]; ICG 800 nm, MB 700 nm
  structure shown in two-channel NIR imaging: highlights blood vessels

## CN1C(=CC=C2CCCC(C=CC3=[N+](C)c4ccccc4C3(C)C)=C2Cl)C(C)(C)c2ccccc21.[O-][Cl+3]([O-])([O-])[O-] [IR-786]
[1]; in PBS
  Peak Absorbance in PBS: 768 nm
[2]; in PBS
  Peak Fluorescence in PBS: 803 nm
  Quantum Yield in PBS: 3.3%
[3]
  clearance after intravenous injection: rapidly extracted into many tissues in the body, especially the liver, and is inefficiently transported into bile
[4]; rats, portal vein injection
  dye stacking to the liver: significant dye stacking to the liver

## CCN(CC)c1ccc2nc3ccc(=[N+](CC)CC)cc-3oc2c1.[O-][Cl+3]([O-])([O-])[O-] [oxazine725]
[9]; in ethylene glycol
  quantum yield of calibration standard: 19%
